Source: US11130960B2, “Methods for conferring or enhancing herbicide resistance on plants and/or alga with protoporphyrinogen oxidase variants” (FARM HANNONG CO., LTD., priority 2014, dated 2021)
“Also recorded” adds a separate entry of the source.

Experiments:
[1] = tested on: wild-type Arabidopsis thaliana (Col-0); assay: Seed germination / growth on ½ MS medium containing herbicide; type: in vivo; conditions: for germination / growth on herbicide medium after 2 weeks: ½ MS medium with 70 nM Tiafenacil
Protocol: (§1) To examine tiafenacil resistance of T2 generation seeds which survived under treatment of 1 μM tiafenacil, among the CyPPO2 and CyPPO8 transformants, Arabidopsis thaliana seeds were sown in ½ MS medium (1.125 g/L of MS salt, 10 g/L of sucrose, 7 g/L of Agar) containing 70 nM tiafenacil. […] Therefore, survival under 70 nM tiafenacil means that a plant has resistance against tiafenacil.
(§2) In Arabidopsis thaliana transformant including CyPPO2 or CyPPO8 gene, which was obtained by transformation using the plant transformation vector prepared in Example 6, the PPO activity-inhibiting herbicide-resistant gene and glufosinate-resistant gene are expressed at the same time. Therefore, it was examined whether cross-treatment of Arabidopsis thaliana transformant with two herbicides, namely, PPO activity-inhibiting herbicide and glufosinate is effective for weed control. To this end, seeds of CyPPO2 and BAR gene-inserted Arabidopsis thaliana transformant, or CyPPO8 and BAR gene-inserted Arabidopsis thaliana transformant were sterilized and treated at low temperature of 4° C. for 2 days. The seeds were sown in a ½ MS medium (Duchefa), a ½MS medium containing 70 nM Tiafenacil, a ½MS medium containing 50 uM glufosinate, or a ½MS medium containing 70 nM Tiafenacil and 50 uM glufosinate, and grown at 23° C. under 16 hour-light/8 hour-dark conditions for 7-14 days. Arabidopsis thaliana on the herbicide media was CyPPO2 or CyPPO8-transformed seed and the wild-type Col0 as a control, respectively. The transformant and the control were cultured on herbicide media. After 2 weeks, they were examined.
(§3) In Example 9, it was confirmed that Arabidopsis thaliana transformant prepared in the present invention has resistance against the two PPO-based herbicides, Tiafenacil and Saflufenacil at the same time, and therefore, it was tested whether the cross-treatment of Arabidopsis thaliana transformant with Tiafenacil and Saflufenacil is effective for weed control. To this end, seeds of CyPPO2 or CyPPO8 gene-inserted Arabidopsis thaliana transformant were sterilized and treated at low temperature of 4° C. for 2 days. The seeds were sown in a ½ MS medium, a ½MS medium containing 70 nM Tiafenacil, a ½MS medium containing 70 nM Saflufenacil, or a ½MS medium containing 35 nM Tiafenacil and 35 nM Saflufenacil, and grown at 23° C. under 16 hour-light/8 hour-dark conditions for 7-14 days. Arabidopsis thaliana on the herbicide media was CyPPO2 or CyPPO8-transformed seed and the wild-type Col0 as a control, respectively. The transformant and the control were cultured on herbicide media. After 2 weeks, they were examined.

[2] = tested on: mutant AtPPO1 transformant; assay: Seed germination on ½ MS medium containing herbicide; type: in vivo, Arabidopsis thaliana; conditions: ½ MS medium containing 70 nM tiafenacil
CyPPO2 transformants = assay: Seed germination / growth on ½ MS medium containing herbicide; type: in vivo, Arabidopsis thaliana; conditions: for germination / growth on herbicide medium after 2 weeks: ½ MS medium with 70 nM Tiafenacil
Protocol: as §1, §2, §3

CyPPO8 transformants = assay: as above; type: in vivo, Arabidopsis thaliana; conditions: for germination / growth on herbicide medium after 2 weeks: ½ MS medium with 70 nM Tiafenacil
Protocol: as §1, §2, §3

CyPPO8 = assay: Growth of transformed BT3(ΔPPO) E. coli in LB liquid medium (OD600); type: cell-based, Halothece sp. PCC 7418; conditions: 37° C., OD600 over culture time
Protocol: In Example 3, herbicide resistance of respective BT3(ΔPPO) strains transformed with the wild-type AtPPO1, mutant AtPPO1, CyPPO2, CyPPO4 or CyPPO8 gene was investigated on agar media containing different herbicides, and in this Example, herbicide resistance of the strains was investigated in LB liquid media containing different herbicides.
HV-50 autoclave from Hirayama, HS2100A electronic scale from Hansung Instrument, CB-30V clean bench from Jeio Tech, JSI-200CL incubator from JSR, MQ-200 photometer from Apogee, and 1210 type UV-visible spectrophotometer from Thermo Fisher Scientific were used. The autoclave was used under conditions of 121° C. and 15 minutes, and the incubator was used at 37° C. with lighting of 160˜200 μmol m^−2s^−1 for a culture time of 13.5 hours. The UV-visible spectrophotometer was used at 600 nm.
Tiafenacil (M.W. 511.87 g/mol), Saflufenacil (M.W. 500.85 g/mol), and Fomesafen (M.W. 438.76 g/mol) used in the experiment were purchased from Dongbu Farm Hannong Co., Ltd, Sigma, and Sigma, respectively. […]
For seed culture of E. coli transformed with respective genes, single colonies thereof were cultured in 3 ml of LB broth containing chloramphenicol for 12 hours, and they were diluted with LB broth to absorbance (OD600) of 1.5. […] Absorbance (OD600) was measured using a spectrophotometer every 1.5 hours. […]

[3] = 70 nM Saflufenacil, or 35 nM Tiafenacil and 35 nM Saflufenacil

| Compound | seed germination ([1]; ½ MS medium containing 50 nM tiafenacil) | seed germination ([1]; ½ MS medium containing 70 nM tiafenacil) | germination / growth on herbicide medium after 2 weeks [1, 3] | germination / growth on herbicide medium after 2 weeks ([1]; 50 uM glufosinate, or 70 nM Tiafenacil and 50 uM glufosinate) | seed germination [2] | germination / growth on herbicide medium after 2 weeks (CyPPO2 transformants; CyPPO2 and BAR gene-inserted, 50 uM glufosinate, or both) | seed germination (CyPPO2 transformants; ½ MS medium containing 70 nM tiafenacil, T2 generation lines no. 1 and 49) | germination / growth on herbicide medium after 2 weeks (CyPPO2 transformants; [3]) | germination / growth on herbicide medium after 2 weeks (CyPPO8 transformants; CyPPO8 and BAR gene-inserted, 50 uM glufosinate, or both) | seed germination (CyPPO8 transformants; ½ MS medium containing 70 nM tiafenacil, T2 generation lines no. 6, 16 and 40) | germination / growth on herbicide medium after 2 weeks (CyPPO8 transformants; [3]) | concentration by which the strain normally grew (CyPPO8) [µM] |
| --- | --- | --- | --- | --- | --- | --- | --- | --- | --- | --- | --- | --- |
| COC(=O)CCNC(=O)C(C)Sc1cc(-n2c(=O)cc(C(F)(F)F)n(C)c2=O)c(F)cc1Cl (stereo not shown) [Tiafenacil] | reduced seed germination | no normal seed germination and was killed; also recorded: showed no germination | not germinated | not germinated | showed germination | normally grew | showed germination | normally grew | normally grew | showed germination | normally grew | – |
| CS(=O)(=O)NC(=O)c1cc(Oc2ccc(C(F)(F)F)cc2Cl)ccc1[N+](=O)[O-] [Fomesafen] | – | – | – | – | – | – | – | – | – | – | – | ≤ 100 |
| CC(C)N(C)S(=O)(=O)NC(=O)c1cc(-n2c(=O)cc(C(F)(F)F)n(C)c2=O)c(F)cc1Cl [Saflufenacil] | – | – | not germinated | – | – | – | – | normally grew | – | – | normally grew | ≤ 100 |
